We go through 19 molecules from US10987359B2, “Oxadiazepinone derivatives and methods of treating hepatitis B infections” (priority 2016, dated 2021).

Like-named read-outs stand apart in the source and are kept apart here.

The subject of the assay is HBV. The assay can be described thus: HBV replication inhibition assay (BDNA assay) in HepG2.2.15 cells. The settings on record: HepG2.2.15 cells, read-out: DNA EC50. In kind it is cell-based. On the procedure:
HBV replication inhibition by the disclosed compounds were determined in cells infected or transfected with HBV or cells with stably integrated HBV, such as HepG2.2.15 cells (Sells et al. 1987). In this example, HepG2.2.15 cells were maintained in cell culture medium containing 10% fetal bovine serum (FBS), Geneticin, L-glutamine, penicillin and streptomycin. HepG2.2.15 cells were seeded in 96-well plates at a density of 40,000 cells/well and were treated with serially diluted compounds at a final DMSO concentration of 0.5% either alone or in combination by adding drugs in a checker box format. Cells were incubated with compounds for three days, after which medium was removed and fresh medium containing compounds was added to cells and incubated for another three days. At day 6, supernatant was removed and treated with DNase at 37° C. for 60 minutes, followed by enzyme inactivation at 75° C. for 15 minutes. Encapsidated HBV DNA was released from the virions and covalently linked HBV polymerase by incubating in lysis buffer (Affymetrix QS0010) containing 2.5 μg proteinase K at 50° C. for 40 minutes. HBV DNA was denatured by addition of 0.2 M NaOH and detected using a branched DNA (BDNA) QuantiGene assay kit according to manufacturer recommendation (Affymetrix). HBV DNA levels were also quantified using qPCR, based on amplification of encapsidated HBV DNA extraction with QuickExtraction Solution (Epicentre Biotechnologies) and amplification of HBV DNA using HBV specific PCR probes that can hybridize to HBV DNA and a fluorescently labeled probe for quantitation. In addition, cell viability of HepG2.2.15 cells incubated with test compounds alone or in combination was determined by using CellTitre-Glo reagent according to the manufacturer protocol (Promega). The mean background signal from wells containing only culture medium was subtracted from all other samples, and percent inhibition at each compound concentration was calculated by normalizing to signals from HepG2.2.15 cells treated with 0.5% DMSO using equation E1. % inhibition=(DMSOave−Xi)/DMSOave×100% E1: […]
where DMSOave is the mean signal calculated from the wells that were treated with DMSO control (0% inhibition control) and Xi is the signal measured from the individual wells. EC50 values, effective concentrations that achieved 50% inhibitory effect, were determined by non-linear fitting using Graphpad Prism software (San Diego, Calif.) and equation E2: Y=Y min+(Y max−Y min)/(1+10(Log EC50−X)×HillSlope) E2: […]
where Y represents percent inhibition values and X represents the logarithm of compound concentrations.
Selected disclosed compounds were assayed in the HBV replication assay (BDNA assay), as described above, and a representative group of these active compounds is shown in Table 7. […] In Table 7, “A” represents 1<EC50≤100; “B” represents 100<EC50≤500; “C” represents 500<EC50≤1000; and “D” represents EC50>1000.

Setting [1] is: HBV replication assay (BDNA assay).
The mark [2] stands for this setting: Hepatitis B virus, HepG2.2.15, HBV replication assay (BDNA assay).

The EC50 is the concentration at which the effect is half-maximal. As for `C[C@@H]1Cc2nn3c(c2CN1C(=O)Nc1ccc(F)c(C(F)(F)F)c1)C(=O)N(C)OC(CO)C3` (stereo in doubt) [Compound 082_E2, (4R*,9R)—N-(4-fluoro-3-(trifluoromethyl)phenyl)-4-(hydroxymethyl)-2,9-dimethyl-1-oxo-1,4,5,8,9,11-hexahydropyrido[4′,3′:3,4]pyrazolo[5,1-d][1,2,5]oxadiazepine-10(2H)-carboxamide], the EC50 under setting [1] was in the range of 0.001 to 0.1 µM.
With `CN1OC(CNC(=O)CC(F)(F)F)Cn2nc3c(c2C1=O)CN(C(=O)Nc1ccc(F)c(Cl)c1)CC3` (stereo not shown) [Compound 199, N-(3-chloro-4-fluorophenyl)-2-methyl-1-oxo-4-((3,3,3-trifluoropropanamido)methyl)-1,4,5,8,9,11-hexahydropyrido[4′,3′:3,4]pyrazolo[5,1-d][1,2,5]oxadiazepine-10(2H)-carboxamide], the EC50 under setting [2] is 0.001 to 0.1 µM.
The same measure, in the same setting: in the case of `C[C@@H]1Cc2nn3c(c2CN1C(=O)Nc1ccc(F)c(Cl)c1F)C(=O)N(C)OC(C(=O)N(C)CC(F)F)C3` (stereo in doubt) [Compound 152_D2, (4R*,9R)—N10-(3-chloro-2,4-difluorophenyl)-N4-(2,2-difluoroethyl)-N4,2,9-trimethyl-1-oxo-1,4,5,8,9,11-hexahydropyrido[4′,3′:3,4]pyrazolo[5,1-d][1,2,5]oxadiazepine-4,10(2H)-dicarboxamide] it was 0.001 to 0.1 µM.
Turning to `COCC1Cn2nc3c(c2C(=O)N(C)O1)CN(C(=O)Nc1ccc(F)c(Cl)c1)CC3` (stereo not shown) [Compound 065, N-(3-chloro-4-fluoro-phenyl)-4-(methoxymethyl)-2-methyl-1-oxo-5,8,9,11-tetrahydro-4H-pyrido[2,3]pyrazolo[2,4-d][1,2,5]oxadiazepine-10-carboxamide], the EC50 under setting [2] fell in the range of 0.001 to 0.1 µM.
For `CN1OC(CO)Cn2nc3c(c2C1=O)CN(C(=O)Nc1cc(F)c(F)c(Cl)c1F)CC3` (single isomer, unassigned) [Compound 137_E1, (S*)—N-(3-chloro-2,4,5-trifluorophenyl)-4-(hydroxymethyl)-2-methyl-1-oxo-1,4,5,8,9,11-hexahydropyrido[4′,3′:3,4]pyrazolo[5,1-d][1,2,5]oxadiazepine-10(2H)-carboxamide], under setting [2], the concentration giving a half-maximal response (EC50) lay within 0.001 to 0.1 µM.
In the case of `C[C@@H]1Cc2nn3c(c2CN1C(=O)Nc1ccc(F)c(Br)c1)C(=O)N(C)OC(COCC(F)F)C3` (stereo in doubt) [Compound 122_D2, (4R*,9R)—N-(3-bromo-4-fluorophenyl)-4-((2,2-difluoroethoxy)methyl)-2,9-dimethyl-1-oxo-1,4,5,8,9,11-hexahydropyrido[4′,3′:3,4]pyrazolo[5,1-d][1,2,5]oxadiazepine-10(2H)-carboxamide], under setting [1], the EC50 fell in the range of 0.001 to 0.1 µM.
Consider `CC1Cn2nc3c(c2C(=O)N(C)O1)CN(C(=O)Nc1ccc(F)c(Cl)c1)CC3` (stereo not shown) [Compound 062, N-(3-chloro-4-fluorophenyl)-2,4-dimethyl-1-oxo-1,4,5,8,9,11-hexahydropyrido[4′,3′:3,4]pyrazolo[5,1-d][1,2,5]oxadiazepine-10(2H)-carboxamide], for which the EC50 under setting [2] is 0.001 to 0.1 µM.
Consider `Cc1cc(NC(=O)N2Cc3c(nn4c3C(=O)N(C)OC(CF)C4)C[C@H]2C)ccc1F` (stereo in doubt) [Compound 086_E2, (4R*,9R)—N-(4-fluoro-3-methylphenyl)-4-(fluoromethyl)-2,9-dimethyl-1-oxo-1,4,5,8,9,11-hexahydropyrido[4′,3′:3,4]pyrazolo[5,1-d][1,2,5]oxadiazepine-10(2H)-carboxamide], for which the EC50 under setting [1] is 0.001 to 0.1 µM.
As to `C[C@@H]1Cc2nn3c(c2CN1C(=O)Nc1cc(Cl)c(F)cc1F)C(=O)N(C)OC(CO)C3` (stereo in doubt) [Compound 090_E1, (4S*,9R)—N-(5-chloro-2,4-difluorophenyl)-4-(hydroxymethyl)-2,9-dimethyl-1-oxo-1,4,5,8,9,11-hexahydropyrido[4′,3′:3,4]pyrazolo[5,1-d][1,2,5]oxadiazepine-10(2H)-carboxamide], the EC50 under setting [2] was in the range of 0.001 to 0.1 µM.
Same read-out and setting: the same measure for `CNC(=O)C1Cn2nc3c(c2C(=O)N(C)O1)CN(C(=O)Nc1ccc(F)c(C#N)c1F)[C@H](C)C3` (single isomer, unassigned) [Compound 156_D1, (4S*,9R)—N10-(3-cyano-2,4-difluorophenyl)-N4,2,9-trimethyl-1-oxo-1,4,5,8,9,11-hexahydropyrido[4′,3′:3,4]pyrazolo[5,1-d][1,2,5]oxadiazepine-4,10(2H)-dicarboxamide]: > 1 µM.
For the molecule `CN1OC(CO)Cn2nc3c(c2C1=O)CN(C(=O)Nc1cccc(Cl)c1)CC3` (stereo not shown) [Compound 030, N-(3-chlorophenyl)-4-(hydroxymethyl)-2-methyl-1-oxo-1,4,5,8,9,11-hexahydropyrido[4′,3′:3,4]pyrazolo[5,1-d][1,2,5]oxadiazepine-10(2H)-carboxamide], the EC50 under setting [2] lay in the range of 0.001 to 0.1 µM.
With `C[C@@H]1Cc2nn3c(c2CN1C(=O)Nc1ccc(F)c(C(F)(F)F)c1)C(=O)N(C)OC(COCC(F)F)C3` (stereo in doubt) [Compound 126_D1, (4S*,9R)-4-((2,2-difluoroethoxy)methyl)-N-(4-fluoro-3-(trifluoromethyl)phenyl)-2,9-dimethyl-1-oxo-1,4,5,8,9,11-hexahydropyrido[4′,3′:3,4]pyrazolo[5,1-d][1,2,5]oxadiazepine-10(2H)-carboxamide], under setting [1], the EC50 is 0.1 to 0.5 µM.
With `C[C@@H]1Cc2nn3c(c2CN1C(=O)Nc1ccc(F)c(C#N)c1)C(=O)N(C)N=C(CO)C3` [Compound 233, (R)-N-(3-cyano-4-fluorophenyl)-4-(hydroxymethyl)-2,9-dimethyl-1-oxo-1,2,5,8,9,11-hexahydro-10H-pyrido[4′,3′:3,4]pyrazolo[5,1-d][1,2,5]triazepine-10-carboxamide], under setting [2], the EC50 lay within 0.001 to 0.1 µM.
The same measure, in the same setting: the same measure for `C[C@@H]1Cc2nn3c(c2CN1C(=O)Nc1ccc(F)c(Br)c1)C(=O)N(C)OC(CNCC(F)F)C3` (stereo in doubt) [Compound 184_D1, (4S*,9R)—N-(3-bromo-4-fluorophenyl)-4-(((2,2-difluoroethyl)amino)methyl)-2,9-dimethyl-1-oxo-1,4,5,8,9,11-hexahydropyrido[4′,3′:3,4]pyrazolo[5,1-d][1,2,5]oxadiazepine-10(2H)-carboxamide]: 0.001 to 0.1 µM; for `CN1OC(CO)Cn2nc3c(c2C1=O)CN(C(=O)Nc1cccc(C(F)(F)F)c1)CC3` (stereo not shown) [Compound 008, 4-(hydroxymethyl)-2-methyl-1-oxo-N-(3-(trifluoromethyl)phenyl)-1,4,5,8,9,11-hexahydropyrido[4′,3′:3,4]pyrazolo[5,1-d][1,2,5]oxadiazepine-10(2H)-carboxamide]: 0.001 to 0.1 µM.
In the case of `C[C@@H]1Cc2nn3c(c2CN1C(=O)Nc1ccc(F)c(C#N)c1)C(=O)N(C)OC(CN(C)C)C3` (stereo in doubt) [Compound 096_D2, (4R*,9R)—N-(3-cyano-4-fluorophenyl)-4-((dimethylamino)methyl)-2,9-dimethyl-1-oxo-1,4,5,8,9,11-hexahydropyrido[4′,3′:3,4]pyrazolo[5,1-d][1,2,5]oxadiazepine-10(2H)-carboxamide], the EC50 under setting [1] is 0.001 to 0.1 µM.
As to `C[C@@H]1Cc2nn3c(c2CN1C(=O)Nc1ccc(F)c(C(F)(F)F)c1)C(=O)N(C)OC(CNS(C)(=O)=O)C3` (single isomer, unassigned) [Compound 179_D1, (4 S*,9R)—N-(4-fluoro-3-(trifluoromethyl)phenyl)-2,9-dimethyl-4-(methylsulfonamidomethyl)-1-oxo-1,4,5,8,9,11-hexahydropyrido[4′,3′:3,4]pyrazolo[5,1-d][1,2,5]oxadiazepine-10(2H)-carboxamide], the concentration for a half-maximal effect (EC50) under setting [2] lay within 0.001 to 0.1 µM.
In the case of `Cc1cc(NC(=O)N2Cc3c(nn4c3C(=O)N(C)OC(CO)C4)C[C@H]2C)ccc1F` (single isomer, unassigned) [Compound 083_E2, (4R*,9R)—N-(4-fluoro-3-methylphenyl)-4-(hydroxymethyl)-2,9-dimethyl-1-oxo-1,4,5,8,9,11-hexahydropyrido[4′,3′:3,4]pyrazolo [5,1-d][1,2,5]oxadiazepine-10(2H)-carboxamide], the EC50 under setting [1] fell in the range of 0.001 to 0.1 µM.
In the case of `CN1OC(COCC(F)(F)F)Cn2nc3c(c2C1=O)CN(C(=O)Nc1ccc(F)c(C#N)c1)CC3` (single isomer, unassigned) [Compound 211, (S*)—N-(3-cyano-4-fluorophenyl)-2-methyl-1-oxo-4-((2,2,2-trifluoroethoxy)methyl)-1,4,5,8,9,11-hexahydropyrido[4′,3′:3,4]pyrazolo[5,1-d][1,2,5]oxadiazepine-10(2H)-carboxamide], the EC50 under setting [2] is 0.001 to 0.1 µM.
